Data reported in US11072634B2, “Inhibitors of transglutaminases” (Zedira GmbH, priority 2016, dated 2021).
pIC50: −log10 of the molar value. Where two headings read alike, the source gives them in different places. *1 amine or outer side, *2 acyl side, *3 side chain or, on linkers, in order; H or OH if unused. Where a SMILES comes first, the peptide text is derived from it. [ ]: non-standard residue; d: D form. The star is where a group is joined. X4 = O=C(CC[C@H](N[*:1])C(=O)[*:2])C(=O)NC1CC1; Isonicotinoyl(3-COOH) = O=C(O)c1cnccc1C(=O)*; X6 = CCNC(=O)C(=O)CC[C@H](N[*:1])C(=O)[*:2]; X5 = NC(=O)C(=O)CC[C@H](N[*:1])C(=O)[*:2]; Pro(4-oxo) = O=C1CN[C@H](C(=O)O)C1; Chg = N[C@H](C(=O)O)C1CCCCC1; Tle = CC(C)(C)[C@H](N)C(=O)O; Nle = CCCC[C@H](N)C(=O)O

Assays:
Assay type in all cases: biochemical
[1] = molecular target: T1, recombinant human factor XIII A-subunit (rhFXIII-A, plasma transglutaminase) (Homo sapiens, UniProt P00488); experiment: Inhibition of rec. human coagulation factor XIII (fluorescence, Abz-NE(CAD-DNP)EQVSPLILLK-OH)
T1 construct: His6; purchased Zedira 1027 (so in the source); T027)
T1 sequence (P00488 39-732 limits assumed): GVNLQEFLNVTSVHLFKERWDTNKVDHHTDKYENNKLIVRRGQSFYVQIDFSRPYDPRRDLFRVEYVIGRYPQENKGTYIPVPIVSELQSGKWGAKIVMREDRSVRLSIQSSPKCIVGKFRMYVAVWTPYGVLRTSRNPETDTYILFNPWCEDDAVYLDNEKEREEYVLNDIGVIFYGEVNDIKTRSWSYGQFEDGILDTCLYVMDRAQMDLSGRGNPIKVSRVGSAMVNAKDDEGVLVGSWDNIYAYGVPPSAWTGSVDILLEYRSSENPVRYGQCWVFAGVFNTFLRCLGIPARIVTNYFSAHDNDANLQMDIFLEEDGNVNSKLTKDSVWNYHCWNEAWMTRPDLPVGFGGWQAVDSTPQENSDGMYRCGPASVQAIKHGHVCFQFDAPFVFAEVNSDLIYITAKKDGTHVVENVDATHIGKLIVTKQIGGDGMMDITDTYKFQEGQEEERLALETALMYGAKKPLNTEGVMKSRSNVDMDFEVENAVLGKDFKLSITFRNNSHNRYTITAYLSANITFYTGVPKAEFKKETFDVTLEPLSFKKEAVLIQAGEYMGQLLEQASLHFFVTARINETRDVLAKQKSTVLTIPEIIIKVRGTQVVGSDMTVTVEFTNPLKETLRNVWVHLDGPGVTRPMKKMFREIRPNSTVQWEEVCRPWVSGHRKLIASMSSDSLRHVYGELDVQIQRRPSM
Experimental: Method for Inhibition Studies of Rec. Human Coagulation Factor XIII (Plasma Transglutaminase, rhFXIII-A)
(§1) 50 μg lyophilized His-tagged recombinant human factor XIII A-subunit (His6-rhFXIII, Zedira product 1027) is reconstituted in H2O (volume depends on original volume before lyophilization) resulting in a buffer containing 20 mM Tris-HCl, 150 mM NaCl, 1 mM EDTA, 1 mM DTT, 189 mg/ml maltodextrin, pH=7.5. The rhFXIII stock solution is diluted in buffer (50 mM Tris-HCl, 7.5 mM CaCl2, 150 mM NaCl, pH=7.4) to give a working solution of 59 U/ml (based on the amine-incorporation activity measured using transglutaminase activity assay #1036 (Zedira GmbH), described below).
(§2) A 10 mM inhibitor stock solution is prepared in DMSO, and from this a serial 1:2-fold dilution series is prepared also in DMSO. Each of the initial dilutions is subsequently diluted 1:50-fold with buffer (50 mM Tris-HCl, 7.5 mM CaCl2, 150 mM NaCl, pH=7.4) to yield the final working dilutions containing 2% (v/v) DMSO.
(§3) 15 μl of inhibitor working dilution are added per well of a 96 well microtiter plate. As control, 15 μl of a 2% (v/v) DMSO solution prepared using the buffer mentioned above are added per well.
(§4) 480 μl of His6-rhFXIII working solution and 120 μl human alpha thrombin (0.5 NIH units/μl) are added to 10.8 ml assay buffer (50 mM Tris-HCl, 7.5 mM CaCl2, 150 mM NaCl, 5 mM DTT, 13.4 mM glycine methylester, 50 μM Abz-NE(CAD-DNP)EQVSPLILLK-OH, (Zedira product A101; patent No.: EP 1781807B1), pH=7.4). From this master-mix solution, 285 μl are added per well containing the inhibitor. Increase in fluorescence is measured using […] and λem=418 nm at 37° C. for 35 min. A slope of the increase in fluorescence between 20 and 30 min is calculated for determination of the IC50 value (inhibitor concentration at which 50% of the initial FXIII activity is blocked).
(§5) Analysis of enzymatic activity is performed by calculation of the slope of an increase in fluorescence intensity. IC50 values are calculated by plotting the enzymatic activity (as percentage from control containing 2% DMSO instead of inhibitor) against the inhibitor concentration. IC50 is defined as the inhibitor concentration blocking 50%) of initial enzyme activity.

[2] = molecular target: T2, TG2 (Homo sapiens, UniProt P21980); experiment: FXIII assay format using TG2 instead of FXIII (selectivity of FXIIIa blockers)
T2 sequence (P21980 1-687): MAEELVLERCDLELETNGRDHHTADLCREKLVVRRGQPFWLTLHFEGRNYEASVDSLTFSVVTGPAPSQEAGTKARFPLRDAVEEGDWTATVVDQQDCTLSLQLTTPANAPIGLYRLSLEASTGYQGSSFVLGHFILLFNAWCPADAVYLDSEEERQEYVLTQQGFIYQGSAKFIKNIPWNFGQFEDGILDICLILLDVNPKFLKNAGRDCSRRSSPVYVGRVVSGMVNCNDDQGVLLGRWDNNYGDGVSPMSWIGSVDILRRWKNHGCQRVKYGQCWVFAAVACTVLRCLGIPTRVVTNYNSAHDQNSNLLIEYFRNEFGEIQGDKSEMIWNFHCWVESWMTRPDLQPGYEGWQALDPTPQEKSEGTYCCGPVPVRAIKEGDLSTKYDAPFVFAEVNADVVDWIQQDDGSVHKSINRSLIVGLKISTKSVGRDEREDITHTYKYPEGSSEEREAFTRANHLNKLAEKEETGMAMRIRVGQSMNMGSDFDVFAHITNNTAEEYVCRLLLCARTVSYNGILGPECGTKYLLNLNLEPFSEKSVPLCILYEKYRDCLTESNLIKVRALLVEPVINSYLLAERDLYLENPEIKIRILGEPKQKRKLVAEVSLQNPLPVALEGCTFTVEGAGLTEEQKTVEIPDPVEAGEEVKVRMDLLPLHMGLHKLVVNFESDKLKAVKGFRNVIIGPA
Experimental: as §1, §2, §3, §4
This assay was also used to determine selectivity of inhibitors preferentially blocking FXIIIa by using TG2 instead of FXIII.
as §5

[3] = molecular target: T3, recombinant human tissue transglutaminase (rhTG2) (Homo sapiens, UniProt P21980); experiment: Inhibition of rec. human tissue transglutaminase (fluorescence, Abz-APE(CAD-DNP)QEA-OH); settings: Table 1, TG2 inhibitors
T3 construct: purchased Zedira 1022 (so in the source); T022)
T3 sequence (P21980 1-687): T2 sequence (P21980 1-687)
Outline: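 His6-rhTG2 in a master mix (50 mM Tris-HCl pH 7.4, 7.5 mM CaCl2, 150 mM NaCl, 5 mM DTT, 13.4 mM glycine methylester, 50 μM Abz-APE(CAD-DNP)QEA-OH) was added to serially diluted inhibitor. Fluorescence (ex 313/em 418 nm) was followed at 37 °C for 20 min. IC50 came from the 10–20 min slope relative to the 2% DMSO control.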

[4] = Table 1, selectivity with respect to FXIII, read-out: IC50 FXIII
[5] = Table 3, FXIII inhibitors, read-out: IC50 FXIII
[6] = Table 3, selectivity with respect to TG2, read-out: IC50 TG2

| pIC50 [1, 4] | pIC50 [3] | pIC50 [1, 5] | Compound | other results |
| --- | --- | --- | --- | --- |
| – | – | – | CC(C)(C)[C@H](NC(=O)[C@H](CCC(=O)C(N)=O)NC(=O)c1cnc(O)c([N+](=O)[O-])c1)C(=O)N1CCCCC1C(=O)N[C@H](C(=O)N[C@H](C(N)=O)C1CCCCC1)C1CCCCC1 (stereo in doubt) [Compound E09, (S)—N1-((S)-1-((R)-2-((S)-2-((S)-2-amino-1-cyclohexyl-2-oxoethylamino)-1-cyclohexyl-2-oxoethylcarbamoyl)piperidin-1-yl)-3,3-dimethyl-1-oxobutan-2-yl)-2-(6-hydroxy-5-nitronicotinamido)-5-oxohexanediamide] | pIC50 [1]: 6.82; pIC50 [2]: 7.00 |
| < 4.00 | 6.22 | – | COC(=O)[C@H](CC(C)C)NC(=O)[C@@H]1CCCN1C(=O)[C@@H](NC(=O)[C@H](CCC(=O)C(N)=O)NC(C)=O)C(C)C [Compound E01, (S)-methyl 2-((S)-1-((S)-2-((S)-2-acetamido-6-amino-5,6-dioxohexanamido)-3-methylbutanoyl)pyrrolidine-2-carboxamido)-4-methylpentanoate] | – |
| < 4.00 | 6.12 | – | CC[C@@H](C)[C@H](NC(=O)[C@H](CCC(N)=O)NC(=O)[C@H](CCC(=O)C(N)=O)NC(C)=O)C(=O)N[C@H](C(N)=O)C(C)C [Compound E03, (S)-2-acetamido-N1-((S)-5-amino-1-((2S,3R)-1-((S)-1-amino-3-methyl-1-oxobutan-2-ylamino)-3-methyl-1-oxopentan-2-ylamino)-1,5-dioxopentan-2-yl)-5-oxohexanediamide] | – |
| < 4.00 | 7.00 | – | CCC(CC)CNC(=O)Cn1cccc(NC(=O)[C@H](CCC(=O)C(N)=O)NC(=O)c2cncn2C)c1=O [Compound E04, (S)—N1-(1-(2-(2-ethylbutylamino)-2-oxoethyl)-2-oxo-1,2-dihydropyridin-3-yl)-2-(1-methyl-1H-imidazole-5-carboxamido)-5-oxohexanediamide] | – |
| < 4.00 | 6.82 | – | Cc1nc(Br)sc1C(=O)N[C@@H](CCC(=O)C(N)=O)C(=O)Nc1cccn(CC(=O)NCCC(C)C)c1=O [Compound E05, (S)-2-(2-bromo-4-methylthiazole-5-carboxamido)-N1-(1-(2-(isopentylamino)-2-oxoethyl)-2-oxo-1,2-dihydropyridin-3-yl)-5-oxohexanediamide] | – |
| – | – | 6.82 | CCCC[C@H](NC(=O)[C@H](CCC(=O)C(N)=O)NC(=O)[C@H](CC(=O)O)NC(C)=O)C(=O)N[C@@H](CCCC)C(=O)N[C@@H](CC(C)C)C(=O)N1CCC[C@H]1C(=O)N[C@@H](Cc1c[nH]c2ccccc12)C(=O)N1CCC[C@H]1C(=O)O [Compound E08, (S)-1-((S)-2-((S)-1-((4R,7S,10S,13S,16S)-7-(4-amino-3,4-dioxobutyl)-10, -dibutyl-4-(carboxymethyl)-18-methyl-2,5,8,11,14-pentaoxo-3,6,9,12,15-pentaazanonadecanecarbonyl)pyrrolidine-2-carboxamido)-3-(1H-indol-3-yl)propanoyl)pyrrolidine-2-carboxylic acid] (Ac-D[X5][Nle][Nle]LPWP-OH) | pIC50 [2, 6]: 7.00 |
| – | – | – | CCCC(NC(=O)C1C2C(CN1C(=O)C(CC1CC1)NC(=O)C(CCC(=O)C(N)=O)NC(=O)c1cc(C(=O)O)cc([N+](=O)[O-])c1)C2(C)C)C(=O)N1CCCC1(C)C(=O)NC(C)COc1c(C)cccc1C [Compound E10, 3-((2S)-6-amino-1-((2S)-3-cyclopropyl-1-((1R,2S)-2-((2S)-1-((2S)-2-(1-(2,6-dimethylphenoxy)propan-2-ylcarbamoyl)-2-methylpyrrolidin-1-yl)-1-oxopentan-2-ylcarbamoyl)-6,6-dimethyl-3-azabicyclo[3.1.0]hexan-3-yl)-1-oxopropan-2-ylamino)-1,5,6-trioxonexan-2-ylcarbamoyl)-5-nitrobenzoic acid] | pIC50 [1]: 6.82; pIC50 [2]: 7.00 |
| < 4.00 | 7.30 | – | CCC(CC)CNC(=O)Cn1cccc(NC(=O)[C@H](CCC(=O)C(=O)NC)NC(=O)c2cncn2C)c1=O [Compound E16, (S)—N1-(1-(2-(2-ethylbutylamino)-2-oxoethyl)-2-oxo-1,2-dihydropyridin-3-yl)-N6-methyl-2-(1-methyl-1H-imidazole-5-carboxamido)-5-oxonexanediamide] | – |
| – | – | 6.49 | CCNC(=O)C(=O)CC[C@H](NC(=O)c1ccncc1C(=O)O)C(=O)N[C@H](C(=O)N1CC(=O)C[C@H]1C(=O)N[C@H](C(=O)N[C@H](C(N)=O)C1CCCCC1)C1CCCCC1)C(C)(C)C [Compound E26, 4-((S)-1-((S)-1-((S)-2-((S)-2-((S)-2-amino-1-cyclohexyl-2-oxoethylamino)-1-cyclohexyl-2-oxoethylcarbamoyl)-4-oxopyrrolidin-1-yl)-3,3-dimethyl-1-oxobutan-2-ylamino)-6-(ethylamino)-1,5,6-trioxohexan-2-ylcarbamoyl)nicotinic acid] ({Isonicotinoyl(3-COOH)}-[X6][Tle][Pro(4-oxo)][Chg][Chg]-NH2) | pIC50 [2, 6]: 4.97 |
| – | – | 6.56 | CC(C)(C)[C@H](NC(=O)[C@H](CCC(=O)C(=O)NC1CC1)NC(=O)c1ccncc1C(=O)O)C(=O)N1CC(=O)C[C@H]1C(=O)N[C@H](C(=O)N[C@H](C(N)=O)C1CCCCC1)C1CCCCC1 [Compound E28, 4-((S)-1-((S)-1-((S)-2-((S)-2-((S)-2-amino-1-cyclohexyl-2-oxoethylamino)-1-cyclo-hexyl-2-oxoethylcarbamoyl)-4-oxopyrrolidin-1-yl)-3,3-dimethyl-1-oxobutan-2-yl-amino)-6-(cyclopropylamino)-1,5,6-trioxohexan-2-ylcarbamoyl)nicotinic acid] ({Isonicotinoyl(3-COOH)}-[X4][Tle][Pro(4-oxo)][Chg][Chg]-NH2) | – |
